This note sets out measurements from ChEMBL document CHEMBL1201862, “PubChem BioAssay data set” (2004).

Test systems include SNB-78; XF498; LXFL 529; KM-20L2; DMS-114; HOP-18; DMS-273; RXF 631; BT-549.
Holding throughout (assay): NCI anticancer screen, dose series, 48 h

The structures appear in SMILES notation.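 48-hour exposure; five concentrations; linearly interpolated endpoints. GI50 marks 50% less growth.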 Active and inactive are the calls of the source. Cut-off read from the data, not from the text of the source: active = GI50 up to about 1.1 µM and inactive = higher.

On to `Cc1cccc(C)c1NC(=O)CCCC(=O)C1/C(=N/NC(=O)CC#N)CCC/C1=N\NC(=O)CC#N` (configuration not stated), for which the GI50 in the assay on SNB-78, in the assay with XF498, with LXFL 529, in the assay with KM-20L2, in the assay on DMS-114 and with HOP-18 was > 100 µM (inactive) throughout. The GI50 in the assay on DMS-273 and in the assay with RXF 631 was > 100 µM (inactive) in each case.

For `CCC1(OC(=O)CNC)C(=O)OCc2c1cc1n(c2=O)Cc2cc3ccccc3nc2-1` (configuration not stated), the GI50 with SNB-78 is 0.263 µM (active); in the assay with LXFL 529, 0.207 µM (active); in the assay on KM-20L2, 0.0336 µM (active); with BT-549 it was 59.4 nM (active); in the assay with HOP-18, 0.0177 µM (active); in the assay with DMS-273, < 0.01 µM (active). Also, in the assay on RXF 631, the GI50 was < 0.01 µM (active).

`CC1(C)CCc2cc3c(cc2O1)OCC1c2cc4c(cc2OC31)OCO4` (configuration not stated): the GI50 is 52.1 µM (inactive) with XF498; > 100 µM (inactive) in the assay on LXFL 529; > 100 µM (inactive) in the assay on KM-20L2; > 100 µM (inactive) in the assay with DMS-114; > 100 µM (inactive) with HOP-18; 55.3 µM (inactive) with RXF 631.

With `CCCCC/C=C1\CCC(CN(C)C)C1=O` (configuration not stated), the GI50 in the assay on SNB-78 is 19.7 µM (inactive); in the assay on XF498 it was 14.9 µM (inactive); in the assay on LXFL 529 it was 1.82 µM (inactive); in the assay on KM-20L2, 15.1 µM (inactive); in the assay on DMS-114 it was 13.5 µM (inactive); in the assay on HOP-18 it was 24 µM (inactive). Besides, the GI50 was 13.6 µM (inactive) in the assay on DMS-273 and 14.7 µM (inactive) with RXF 631.

As to `CC(C)N(C(=O)C12C3C4C1C1C2C3C41C#N)C(C)C` (configuration not stated), the GI50 in the assay on SNB-78, in the assay on XF498, in the assay on LXFL 529, with KM-20L2, in the assay on DMS-114 and with HOP-18 was > 100 µM (inactive) in each case. In addition, the GI50 is > 71.8 µM (inactive) in the assay with DMS-273 and > 100 µM (inactive) in the assay with RXF 631.

In the case of `N#CCc1nnc(N)o1`, the GI50 in the assay on SNB-78, in the assay on XF498, with LXFL 529, in the assay on KM-20L2, in the assay with DMS-273 and in the assay on RXF 631 was > 100 µM (inactive) each time.

As for `O=C(COc1ccc(Cl)cc1)N1N=C(c2ccc([N+](=O)[O-])o2)CC1(O)c1ccccc1` (configuration not stated), the GI50 in the assay with SNB-78 was 13.8 µM (inactive); in the assay on XF498, 10.5 µM (inactive); in the assay on KM-20L2, 12.3 µM (inactive); with DMS-273 it was 5.28 µM (inactive); in the assay with RXF 631, 7.87 µM (inactive).

For the compound `CCCCCCCc1cc(OC(=O)c2c(C)cc(OC)cc2O)cc(O)c1C(=O)O`, the GI50 in the assay on SNB-78 was 29.2 µM (inactive); in the assay on LXFL 529, 18.2 µM (inactive); in the assay on KM-20L2 it was 21.2 µM (inactive); with DMS-273 it was 28.8 µM (inactive); in the assay on RXF 631 it was 25.5 µM (inactive).

`NNC(=S)N/N=C(/C(=O)Nc1cc(Cl)ccc1Cl)C1C(=O)Nc2ccccc2[S+]1[O-]` (configuration not stated): the GI50 in the assay on SNB-78, with XF498, in the assay on LXFL 529, with KM-20L2, in the assay with DMS-114 and with HOP-18 was > 100 µM (inactive) each time.

Consider `C/C(CN1C(=O)c2ccccc2C1=O)=N\NS(=O)(=O)c1ccc(F)cc1`, for which the GI50 in the assay on SNB-78, in the assay on XF498, in the assay on LXFL 529, with KM-20L2, with DMS-114 and in the assay on HOP-18 was > 100 µM (inactive) each time. For the same compound, the GI50 with DMS-273 was > 100 µM (inactive).

For `CC(C)(C)OC1=C(OC(C)(C)C)C(O)(c2ccc(Cl)cc2)C1=O` (configuration not stated), the GI50 with SNB-78 was > 100 µM (inactive); in the assay with LXFL 529, > 100 µM (inactive); in the assay on DMS-114, > 100 µM (inactive); with HOP-18 it was > 100 µM (inactive); with DMS-273 it was > 100 µM (inactive); in the assay on RXF 631 it was 86.5 µM (inactive).

On to `C/C=C/C=N/N(C(=O)c1cc([N+](=O)[O-])cc([N+](=O)[O-])c1)C1=NN=C(c2ccccc2)C(c2ccccc2)N1` (configuration not stated), for which the GI50 in the assay with SNB-78 was 52.8 µM (inactive); in the assay with XF498 it was 36 µM (inactive); in the assay with KM-20L2, 32.1 µM (inactive); in the assay on DMS-114, 21 µM (inactive); in the assay on HOP-18, > 100 µM (inactive); with DMS-273, 46 µM (inactive). In addition, in the assay on RXF 631, the GI50 is > 100 µM (inactive).

Regarding `CC(C)(C)C1(O)Cc2ccccc2C(=O)O1` (configuration not stated), the GI50 with SNB-78, in the assay with LXFL 529, with KM-20L2, in the assay on DMS-114, in the assay with HOP-18 and in the assay with DMS-273 was > 100 µM (inactive) each time. Further, in the assay on RXF 631, the GI50 is > 100 µM (inactive).

Take `CCN1CCC(O)(c2ccc(OC)cc2)C(C(=O)c2ccc(OC)cc2)C1` (configuration not stated): the GI50 in the assay with SNB-78 was 26.1 µM (inactive); in the assay with XF498 it was 17.6 µM (inactive); in the assay on LXFL 529, 20 µM (inactive); in the assay with KM-20L2, 18.6 µM (inactive); in the assay on DMS-114, 18.7 µM (inactive); in the assay with DMS-273 it was 22.8 µM (inactive). Besides, the GI50 in the assay on RXF 631 was 21.5 µM (inactive).

Take `Cc1c(CCl)c(=O)oc2c(C)c3occ(CCl)c(=O)c3cc12`: the GI50 in the assay with LXFL 529 is 15.2 µM (inactive); in the assay with KM-20L2, > 100 µM (inactive); in the assay with DMS-114, 20.2 µM (inactive); in the assay with HOP-18, 17.4 µM (inactive); in the assay with RXF 631, 16 µM (inactive).

`C=C1C[C@]23CCC4C(C)(C)C(=O)CC[C@]4(C)C2C[C@H]1C(O)C3=O` (some centres not stated): the GI50 in the assay with SNB-78, with XF498, in the assay on LXFL 529, in the assay on KM-20L2, in the assay with HOP-18 and with RXF 631 was > 75 µM (inactive) in each case.

Turning to `COc1cc2cc(c1Cl)N(C)C(=O)C[C@H](OC(=O)[C@H](C)N(C)C(C)=O)[C@]1(C)O[C@H]1[C@H](C)[C@@H]1C[C@@](O)(NC(=O)O1)[C@H](OC)/C=C/C=C(/C)C2`, the GI50 in the assay on SNB-78 is 0.025 µM (active); with XF498 it was 0.0628 µM (active); with LXFL 529 it was 0.01 µM (active); in the assay with KM-20L2, 0.0308 µM (active); in the assay with BT-549, 334 nM (active); with DMS-114 it was 0.0323 µM (active). For the same compound, the GI50 in the assay on HOP-18 is 0.695 µM (active); in the assay on DMS-273, 0.01 µM (active).

Turning to `CCCCCCCCCCCC(=O)OCCOCCOCCOCCOCCOC(=O)CCCCCCCCCCC`, the GI50 with SNB-78, in the assay on LXFL 529, in the assay on KM-20L2, in the assay with DMS-114, in the assay on HOP-18 and in the assay with DMS-273 was > 100 µM (inactive) in each case. Further, the GI50 in the assay with RXF 631 was > 100 µM (inactive).

Regarding `CNS(=O)(=O)NNS(=O)(=O)c1ccc(Cl)cc1`, the GI50 with KM-20L2, with DMS-114 and in the assay on RXF 631 was > 100 µM (inactive) each time.

For `Cc1cc2c3ccccc3n(C)c2c2c1C(=O)c1ccccc1C2=O`, the GI50 in the assay with XF498 was 15.9 µM (inactive); in the assay with LXFL 529, 16.9 µM (inactive); in the assay on DMS-114, 17.1 µM (inactive); in the assay with DMS-273, 19.4 µM (inactive); in the assay on RXF 631 it was 21.9 µM (inactive).

For the compound `C=CC(=O)NC(=N)NC#N`, the GI50 was 179 µM (inactive) in the assay on SNB-78; 97.3 µM (inactive) in the assay on XF498; 124 µM (inactive) in the assay on LXFL 529; 150 µM (inactive) in the assay on KM-20L2; 114 µM (inactive) with DMS-114; 148 µM (inactive) with HOP-18.

As to `CCOC(=O)Cc1csc(Nc2ccc(OCC)cc2)n1`, the GI50 in the assay on SNB-78 was > 100 µM (inactive); with XF498, 38.7 µM (inactive); in the assay with LXFL 529 it was 87.3 µM (inactive); in the assay on KM-20L2, > 100 µM (inactive); with DMS-114, 69.2 µM (inactive); in the assay with HOP-18, > 100 µM (inactive). Besides, the GI50 with RXF 631 is > 100 µM (inactive).

On to `O=C(NCCS(=O)(=O)N1C(=O)C2CCCN2C(=O)[C@@H]1Cc1ccccc1)OCc1ccccc1` (some centres not stated), for which the GI50 with SNB-78 was 61.9 µM (inactive); in the assay on XF498, 0.838 µM (active); with LXFL 529 it was 34 µM (inactive); in the assay on KM-20L2 it was 45.8 µM (inactive); in the assay on DMS-114, 22.4 µM (inactive); in the assay on HOP-18, > 100 µM (inactive). In the assay on RXF 631, the GI50 is 45.6 µM (inactive).
